# Laboratory results reported in patent US4175125A, “Method for treating methicillin resistant staphylococcus aureus” (Eli Lilly and Company, priority 1978, dated 1979).
# Where two headings read alike, the source gives them in different places.
# Experiments:
# Format in all cases: cell-based
# [1] = test system: Staphylococcus aureus cultures; assay: Broth dilution MIC in trypticase soy broth, low and high NaCl (Example 10); conditions: for MIC: Staphylococcus aureus, TSB
# In short: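 MIC by broth dilution, in µg/ml, against Staphylococcus aureus cultures grown in trypticase soy broth containing either 0.5 percent or 5.0 percent NaCl. The high-salt condition serves to distinguish methicillin-resistant cultures.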
# [2] = test system: Staphylococcus aureus cultures; assay: Modified Bauer-Kirby Disc Susceptibility Test (Example 11); set-up: zone of inhibition: dose or concentration left out as unconfirmed; conditions: for zone of inhibition: Staphylococcus aureus; for Change 37°-30°: 30 mg Disc
# Method: This example exemplifies the antibiotic activity of 7-[2'-(3"-chloro-4"-fluorophenylthio)acetamido]cephalosporanic acid, a water soluble compound, described in Example 8, against various Staphylococcus aureus cultures, in a modified Bauer-Kirby Disc Susceptibility Test (Bauer, A. W., W. M. M. Kirby, J. C. Sherris, and M. Turck, 1966, Amer. J. Clin. Pathol. 45:493-496). In this test the cultures were incubated at both 37° C. or 30° C. […] 16, 1968, the heterogeneity of methicilllin-resistant S. aureus is manifested by incubation at 30° C.
# [3] = test system: Staphylococcus aureus cultures; assay: Agar dilution susceptibility test, phenylthioacetyl cephalosporins vs methicillin resistant S. aureus (Example 9); conditions: Staphylococcus aureus
# In short: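 Agar dilution MIC, μg/mL, against Staphylococcus aureus isolates, inocula diluted to 10^3 bacteria per spot. Panel: penicillin-sensitive 3055 and penicillin-resistant H232 controls, methicillin-resistant clinical isolates, and laboratory-selected mutant 3136.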
# [4] = culture 3130, table part marked b
# [5] = culture 3130, table part marked c
# [6] = culture 3131, table part marked b
# [7] = culture 3131, table part marked c
# [8] = culture 3134, table part marked b
# [9] = culture 3134, table part marked c
# [10] = culture 3135, table part marked b
# [11] = culture 3135, table part marked c
# [12] = culture 3136, table part marked b
# [13] = culture 3136, table part marked c
# [14] = culture 3137, table part marked b
# [15] = culture 3137, table part marked c
# [16] = culture 3138, table part marked b
# [17] = culture 3138, table part marked c
# [18] = culture 3139, table part marked b
# [19] = culture 3139, table part marked c
# [20] = culture (Seattle) 966, table part marked b
# [21] = culture (Seattle) 966, table part marked c
# [22] = culture S61, table part marked b
# [23] = culture S61, table part marked c
smiles,measurement,setting,value
"CC(=O)OCC1=C(C(=O)O)N2C(=O)[C@@H](NC(=O)Cc3cccs3)[C@H]2SC1 [Cephalothin, cephalothin, reference compound]",difference in MIC values in low versus high salt TSB cultures,"[1]; 0.5 percent vs 5.0 percent NaCl, methicillin-resistant S. aureus",fairly wide difference (increase in MIC value from 2 to 64)
same,MIC,"[1]; culture 3055 (control), table part marked b",0.5 µg/mL
same,MIC,"[1]; culture 3055 (control), table part marked c",0.5 µg/mL
same,MIC,[1]; [4],8 µg/mL
same,MIC,[1]; [5],64 µg/mL
same,MIC,[1]; [6],2 µg/mL
same,MIC,[1]; [7],64 µg/mL
same,MIC,"[1]; culture 3132 (first column so headed), table part marked b",2 µg/mL
same,MIC,"[1]; culture 3132 (first column so headed), table part marked c",64 µg/mL
same,MIC,"[1]; culture 3132 (second column so headed), table part marked b",2 µg/mL
same,MIC,"[1]; culture 3132 (second column so headed), table part marked c",64 µg/mL
same,MIC,[1]; [8],32 µg/mL
same,MIC,[1]; [9],64 µg/mL
same,MIC,[1]; [10],2 µg/mL
same,MIC,[1]; [11],64 µg/mL
same,MIC,[1]; [12],2 µg/mL
same,MIC,[1]; [13],64 µg/mL
same,MIC,[1]; [14],64 µg/mL
same,MIC,[1]; [15],128 µg/mL
same,MIC,[1]; [16],32 µg/mL
same,MIC,[1]; [17],64 µg/mL
same,MIC,[1]; [18],4 µg/mL
same,MIC,[1]; [19],32 µg/mL
same,MIC,[1]; [20],2 µg/mL
same,MIC,[1]; [21],32 µg/mL
same,MIC,"[1]; culture H232 (control), table part marked b",0.5 µg/mL
same,MIC,"[1]; culture H232 (control), table part marked c",0.5 µg/mL
same,MIC,"[1]; culture Kavarnick 1138501, table part marked b",4 µg/mL
same,MIC,"[1]; culture Kavarnick 1138501, table part marked c",64 µg/mL
same,MIC,[1]; [22],8 µg/mL
same,MIC,[1]; [23],64 µg/mL
same,MIC,"[1]; culture S, table part marked b",8 µg/mL
same,MIC,"[1]; culture S, table part marked c",64 µg/mL
same,zone of inhibition,"[2]; culture 3055 (penicillin sensitive), 30°, read-out: disc susceptibility (zone) at 30°",> 35 mm
same,zone of inhibition,"[2]; culture 3055 (penicillin sensitive), 37°, read-out: disc susceptibility (zone) at 37°",> 35 mm
same,zone of inhibition,"[2]; culture 3074 (methicillin sensitive, penicillinase producing), 30°, read-out: disc susceptibility (zone) at 30°",32.1 mm
same,zone of inhibition,"[2]; culture 3074 (methicillin sensitive, penicillinase producing), 37°, read-out: disc susceptibility (zone) at 37°",31.8 mm
same,zone of inhibition,"[2]; culture 3125 (methicillin resistant), 30°, read-out: disc susceptibility (zone) at 30°",33.8 mm
same,zone of inhibition,"[2]; culture 3125 (methicillin resistant), 37°, read-out: disc susceptibility (zone) at 37°",33.4 mm
same,zone of inhibition,"[2]; culture 3130 (methicillin resistant), 30°, read-out: disc susceptibility (zone) at 30°",20.2 mm
same,zone of inhibition,"[2]; culture 3130 (methicillin resistant), 37°, read-out: disc susceptibility (zone) at 37°",32.8 mm
same,zone of inhibition,"[2]; culture 3131 (methicillin resistant), 30°, read-out: disc susceptibility (zone) at 30°",16.6 mm
same,zone of inhibition,"[2]; culture 3131 (methicillin resistant), 37°, read-out: disc susceptibility (zone) at 37°",29.6 mm
same,zone of inhibition,"[2]; culture 3132 (methicillin resistant), 30°, read-out: disc susceptibility (zone) at 30°",17.6 mm
same,zone of inhibition,"[2]; culture 3132 (methicillin resistant), 37°, read-out: disc susceptibility (zone) at 37°",28.6 mm
same,zone of inhibition,"[2]; culture 3133 (methicillin resistant), 30°, read-out: disc susceptibility (zone) at 30°",12.8 mm
same,zone of inhibition,"[2]; culture 3133 (methicillin resistant), 37°, read-out: disc susceptibility (zone) at 37°",28.8 mm
same,zone of inhibition,"[2]; culture 3134 (methicillin resistant), 30°, read-out: disc susceptibility (zone) at 30°",12.1 mm
same,zone of inhibition,"[2]; culture 3134 (methicillin resistant), 37°, read-out: disc susceptibility (zone) at 37°",27.8 mm
same,zone of inhibition,"[2]; culture 3135 (methicillin resistant), 30°, read-out: disc susceptibility (zone) at 30°",11.8 mm
same,zone of inhibition,"[2]; culture 3135 (methicillin resistant), 37°, read-out: disc susceptibility (zone) at 37°",28 mm
same,zone of inhibition,"[2]; culture 3136 (methicillin resistant), 30°, read-out: disc susceptibility (zone) at 30°",20.8 mm
same,zone of inhibition,"[2]; culture 3136 (methicillin resistant), 37°, read-out: disc susceptibility (zone) at 37°",35.6 mm
same,zone of inhibition,"[2]; culture 3137 (methicillin resistant), 30°, read-out: disc susceptibility (zone) at 30°",0 mm
same,zone of inhibition,"[2]; culture 3137 (methicillin resistant), 37°, read-out: disc susceptibility (zone) at 37°",17.8 mm
same,zone of inhibition,"[2]; culture 3138 (methicillin resistant), 30°, read-out: disc susceptibility (zone) at 30°",11.3 mm
same,zone of inhibition,"[2]; culture 3138 (methicillin resistant), 37°, read-out: disc susceptibility (zone) at 37°",26.2 mm
same,zone of inhibition,"[2]; culture 3139 (methicillin resistant), 30°, read-out: disc susceptibility (zone) at 30°",27 mm
same,zone of inhibition,"[2]; culture 3139 (methicillin resistant), 37°, read-out: disc susceptibility (zone) at 37°",32 mm
same,zone of inhibition,"[2]; culture 3140 (methicillin resistant), 30°, read-out: disc susceptibility (zone) at 30°",10.4 mm
same,zone of inhibition,"[2]; culture 3140 (methicillin resistant), 37°, read-out: disc susceptibility (zone) at 37°",29.7 mm
same,zone of inhibition,"[2]; culture H232 (methicillin sensitive, penicillinase producing), 30°, read-out: disc susceptibility (zone) at 30°",33.2 mm
same,zone of inhibition,"[2]; culture H232 (methicillin sensitive, penicillinase producing), 37°, read-out: disc susceptibility (zone) at 37°",33.4 mm
same,Change 37°-30°,[2]; culture 3074,+0.3 mm
same,Change 37°-30°,[2]; culture 3130,-12.6 mm
same,Change 37°-30°,[2]; culture 3131,-13.0 mm
same,Change 37°-30°,[2]; culture 3132,-11.0 mm
same,Change 37°-30°,[2]; culture 3133,-16.0 mm
same,Change 37°-30°,[2]; culture 3134,-15.7 mm
same,Change 37°-30°,[2]; culture 3135,-16.2 mm
same,Change 37°-30°,[2]; culture 3136,-14.8 mm
same,Change 37°-30°,[2]; culture 3137,> 17.8 mm
same,Change 37°-30°,[2]; culture 3138,-14.9 mm
same,Change 37°-30°,[2]; culture 3139,-5.0 mm
same,Change 37°-30°,[2]; culture 3140,-13.3 mm
same,Change 37°-30°,[2]; culture H232,-0.2 mm
same,MIC,"[3]; culture 3055 (control, benzylpenicillin sensitive), table part marked b",< 0.25 µg/mL
same,MIC,"[3]; culture 3055 (control, benzylpenicillin sensitive), table part marked c",< 0.25 µg/mL
same,MIC,[3]; [4],8 µg/mL
same,MIC,[3]; [5],64 µg/mL
same,MIC,[3]; [6],1 µg/mL
same,MIC,[3]; [7],32 µg/mL
same,MIC,"[3]; culture 3132, table part marked b",2 µg/mL
same,MIC,"[3]; culture 3132, table part marked c",16 µg/mL
same,MIC,"[3]; culture 3133, table part marked b",2 µg/mL
same,MIC,"[3]; culture 3133, table part marked c",64 µg/mL
same,MIC,[3]; [8],8 µg/mL
same,MIC,[3]; [9],64 µg/mL
same,MIC,[3]; [10],2 µg/mL
same,MIC,[3]; [11],32 µg/mL
same,MIC,[3]; [12],2 µg/mL
same,MIC,[3]; [13],32 µg/mL
same,MIC,[3]; [14],64 µg/mL
same,MIC,[3]; [15],128 µg/mL
same,MIC,[3]; [16],8 µg/mL
same,MIC,[3]; [17],64 µg/mL
same,MIC,[3]; [18],1 µg/mL
same,MIC,[3]; [19],32 µg/mL
same,MIC,[3]; [20],1 µg/mL
same,MIC,[3]; [21],32 µg/mL
same,MIC,"[3]; culture H232 (control, benzylpenicillin-resistant), table part marked b",< 0.25 µg/mL
same,MIC,"[3]; culture H232 (control, benzylpenicillin-resistant), table part marked c",< 0.25 µg/mL
same,MIC,"[3]; culture Kavarmark 1138501, table part marked b",2 µg/mL
same,MIC,"[3]; culture Kavarmark 1138501, table part marked c",32 µg/mL
same,MIC,[3]; [22],2 µg/mL
same,MIC,[3]; [23],64 µg/mL
